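All cell lines were grown in 96-well plates and treated with compound for 48 hours. TGI: total growth inhibition.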
Key:
Assay in all cases: DTP human tumour cell line panel, 48 h
786-0 renal = system: 786-0 renal
A549 NSCLC = system: A549 NSCLC
DU-145 prostate = system: DU-145 prostate
HL-60(TB) leukemia = system: HL-60(TB) leukemia
LOX IMVI melanoma = system: LOX IMVI melanoma
RPMI-8226 leukemia = system: RPMI-8226 leukemia
SK-MEL-2 melanoma = system: SK-MEL-2 melanoma
SK-MEL-28 melanoma = system: SK-MEL-28 melanoma
SN12C renal = system: SN12C renal
SNB-19 CNS = system: SNB-19 CNS

| SMILES | TGI (786-0 renal) | TGI (A549 NSCLC) | TGI (DU-145 prostate) | TGI (HL-60(TB) leukemia) | TGI (LOX IMVI melanoma) | TGI (RPMI-8226 leukemia) | TGI (SK-MEL-2 melanoma) | TGI (SK-MEL-28 melanoma) | TGI (SN12C renal) | TGI (SNB-19 CNS) |
| --- | --- | --- | --- | --- | --- | --- | --- | --- | --- | --- |
| N/C(=N\S(=O)(=O)c1ccc(S(=O)(=O)c2ccccc2)s1)Nc1ccc(Cl)cc1 | 41.5 µM | > 100 µM | 55.3 µM | 53.8 µM | 32.4 µM | 88.7 µM | 31.6 µM | 44 µM | 36.3 µM | > 100 µM |
| CCC(CON(C)c1ccccc1)(SC)SC | > 100 µM | > 100 µM | > 100 µM | > 100 µM | > 100 µM | > 100 µM | > 100 µM | > 100 µM | > 100 µM | > 100 µM |
| C[C@]12CC[C@H]3[C@@H](CC=C4C[C@@H](N5CCCC5)CC[C@@]43C)[C@@H]1C[C@H](N1CCOCC1)[C@@H]2O | > 100 µM | > 100 µM | > 100 µM | > 100 µM | > 10 µM | > 100 µM |  | > 100 µM | > 100 µM | > 100 µM |
| O=C1CCC2(CC1CC(Sc1ccccc1)Sc1ccccc1)OCCO2 (centres undefined) | > 100 µM | > 100 µM | > 100 µM | 46 µM | > 100 µM | > 100 µM | > 100 µM | > 100 µM |  | > 100 µM |
| O=C(NCCC1([N+](=O)[O-])CCN(C(=O)c2ccccc2)CC1)c1ccccc1 | > 100 µM | > 100 µM | > 100 µM | > 100 µM |  | > 100 µM | > 100 µM |  | > 100 µM | > 100 µM |
| BrCCCCCOc1ccc(-c2c3ccccc3c(-c3ccc(OCCCCCBr)cc3)c3ccccc23)cc1 | > 100 µM | > 100 µM | > 100 µM | > 100 µM |  | > 100 µM | > 100 µM | > 100 µM | > 100 µM | > 100 µM |
| O=S(=O)(c1ccccc1)n1c2ccc(Br)cc2c2nc3ccccc3nc21 | > 100 µM | > 100 µM | > 100 µM |  | > 100 µM | > 100 µM | > 100 µM | > 100 µM | > 100 µM | > 100 µM |
| O=C(O)c1cc2ccccc2c(N=Nc2ccc(S(=O)(=O)Nc3nccs3)cc2)c1O | > 100 µM | > 100 µM | > 100 µM | > 100 µM |  | > 100 µM | > 100 µM | > 100 µM | > 100 µM |  |
| CC(=O)N=C1N(/C=C2\C(=O)Oc3ccccc3C2=O)C(=O)/C(=C/c2ccc(OC(C)=O)cc2)N1C | > 100 µM | > 100 µM | > 100 µM | > 100 µM | > 100 µM | > 100 µM | > 100 µM | > 100 µM | > 100 µM |  |
| COC(=O)C1Cc2c(OC)ccc(OC)c2CC(C(=O)OC)C1=O (centres undefined) | > 100 µM | > 100 µM | > 100 µM |  |  | > 100 µM |  | > 100 µM | > 100 µM | > 100 µM |
| O=C1CC2(c3ccccc3)ON=C(c3ccccc3)N2c2ccccc2N1 (centres undefined) | > 100 µM |  | > 100 µM | > 100 µM | > 100 µM | > 100 µM | > 100 µM | > 100 µM | > 100 µM | > 100 µM |
| CCOC(=O)C1=CNC(C(=O)OCC)C1c1cccn1-c1ccc(Cl)cc1[N+](=O)[O-] (centres undefined) | 45.9 µM | > 100 µM | > 100 µM |  | 29.4 µM |  | 34.8 µM | 53.1 µM | 37.8 µM |  |

From PubChem BioAssay (NCI)
